Reference: patent US7132524B2, “Plant brassinolide responsive genes and use thereof” (National Agriculture and Bio-oriented Research Organization, priority 2002, dated 2006)
Entries after “also recorded” stand apart in the source; their conditions may differ.

B1: OsBLE1: OsBLE1 cDNA (SEQ ID NO: 1) inserted in antisense direction in binary vector pIG121-Hm under CaMV 35S promoter (nucleic acid, listed as Oryza sativa)
DNA: AATTCGGCACGAGCGGCGGCGAGAGGAGCGGCGGCGATGGGCGGCGGCGGGCACGGCGGCGGCACGACGTACAAGGGGTACACCATCCCCCACAACAAGCGCTGGCACACCGTCGCCGGCAAGGGCCTCTGCGCCGTCATGTGGTTTTGGGTTTTCTACAGGGCTAAGCAGGACGGTGCTGTTCTCTTGGGCATGCGTCATCCTTGGGATGGTCATGATGATCACTCACATGGTCATGGGCATGAGCATGAGGGATCATCATCAACATCGTCGTCTCACTAAATCAACTGCTTCTTGGCGGCTGAGGGAGACTCGCTGCTTTGGTTGTCGCGATGAAATCCTCGAAGATAATAAAGTTTCACACTATTAATTTTATTAAGATGGGTTCATGTTGTTGGCAACTGTTTAAGGCAAACTGGTTATGTATTTTGCTTTTGAGATAGCCTCCCTCGATGGAAAACCCATGTATGTTGTTGCTTATTAGGCTGTGGACATCCTTTTGGATGTAGAGGCTGGGTTTTTAATCCATTATCTAAAAAAATGTTGTTGCTTCTTCCGATCAAAAAAAAAAAAAAAAAAAAAAAAAAAAAAAAAAAAA
modifications: antisense orientation in binary vector under 35S promoter; cDNA

Key:
[1] = system: OsBLE1 and OsBLE2 genes; assay: Northern blotting analysis of OsBLE1 and OsBLE2 expression after plant hormone treatment; type: in vivo, Rice (Nipponbare); conditions: for expression of OsBLE1 and OsBLE2 following hormone treatment: leaf sheath and base of leaf blades, FIG. 2B-2C
Description: Rice (Nipponbare) was grown at 25° C. and 75% humidity with a 12-hrs day and 12-hrs night under white fluorescent light (about 600 μmol·m^−2sec^−1). Commercially available, high quality brassinolide (BL), gibberellin (GA), and indole-3-acetic acid (IAA) were used for the present invention. The method of Chomczynski and Sacchi (Chomczynski P., Sacchi N., Ana. Biochem., 162: 156–159, 1987) was used to extract RNA for RNA blotting analysis. An mRNA purification kit oligotex-dT-30 (Takara), was used to prepare mRNA for micro-array analysis. After tissue samples were quickly frozen in liquid nitrogen, about 0.5 g of the frozen tissue was ground into powder in a mortar and pestle. Total RNA was prepared by the method of Chomczynski and Sacchi (Chomczynski P., Sacchi N., Anal. Biochem., 162: 156–159, 1987). Then, mRNA for microarray analysis was purified from the total RNA using oligotexdT kit (Takara). For Northern blot analysis, 20 μg of the total RNA were electrophoresed in a 1.2% agarose gel containing 6% formaldehyde and then transferred to a Hybond™-N^+ nylon membrane. In order to ensure equivalent amount of RNAs were electrophoresed for Northern blotting, the present inventors stained gels with ethidium bromide to compare rRNA quantity. Hybridization was carried out at 42° C. overnight using ULTRAhyb™ (Ambion), and the membrane was washed with 2×SSC and 0.1% SDS at 42° C. for 5 min, and then with 0.1×SSC and 0.1% SDS at 68° C. for 15 min. Nylon membrane was exposed to X-ray film (Kodak). The expression patterns of the 12 genes were analyzed by Northern blotting. The present inventors then found two genes whose expression occurs one to six hours after brassinolide treatment and was increased in the leaf sheath and the base of leaf blades by auxin and brassinolide treatment (FIGS. 2A–2C). The present inventors named these two genes OsBLE1 and OsBLE2.

[2] = system: Nipponbare rice cultivar; assay: Growth of rice transformed with antisense cDNA under CaMV 35S promoter; type: in vivo; conditions: antisense direction in pIG121-Hm, Agrobacterium EHA101, FIGS. 5B-5C
Text: Two different cDNAs were inserted into an expression vector in the antisense direction. The resulting vector was then introduced into Agrobacterium (EHA101). The resulting Agrobacterium was used to transform Nipponbare rice cultivar by the ultrahigh-speed transformation method for monocotyledons (Japanese Patent No. 3141084).
Both of cDNAs of OsBLE1 and OsBLE2 were modified to have SalI restriction site at their 5′ end and to have XbaI restriction sites at their 3′ ends. The modified cDNAs were then digested with XbaI and SalI and inserted into a binary vector pIG121-Hm (Ohta S., Mita S., Hattori T., Nakamura K., Plant Cell Physiol., 31: 805–813, 1990) at XbaI (5′ end) and SalI (3′ end) sites (in the antisense direction) under the control of cauliflower mosaic virus 35S promoter. The recombinant binary vectors were introduced into Agrobacterium EHA101, and the resulting Agrobacterium was introduced into Nipponbare rice cultivar by ultrahigh-speed transformation method for monocotyledons. […] Therefore, the present inventors have succeeded in dwarfing a transformed plant in which expression of a gene that is induced by addition of a plant hormone, brassinolide, is regulated.

[3] = system: 1265 rice genes (EST clones); assay: cDNA microarray analysis of rice seedling leaf blade base after brassinolide treatment; type: in vivo, Rice (Nipponbare); conditions: base of leaf blades of rice seedling, 1 μM brassinolide, 48 hours; depending on the concentration
Description: Rice (Nipponbare) was grown at 25° C. and 75% humidity with a 12-hrs day and 12-hrs night under white fluorescent light (about 600 μmol·m^−2sec^−1). Commercially available, high quality brassinolide (BL), gibberellin (GA), and indole-3-acetic acid (IAA) were used for the present invention. The method of Chomczynski and Sacchi (Chomczynski P., Sacchi N., Ana. Biochem., 162: 156–159, 1987) was used to extract RNA for RNA blotting analysis. An mRNA purification kit oligotex-dT-30 (Takara), was used to prepare mRNA for micro-array analysis. A cDNA microarray containing 1265 EST clones was used. RNA was isolated from the base of leaf blades treated with 1 μM brassinolide for 48 hours. Reverse transcription reaction was performed for two hours at 42° C. using 1 μg of mRNA in the presence of 50 μM Cy5 dCTP (Amersham Pharmacia), and then stopped. After heated at 94° C. for 3 min, the resulting mixture was treated with NaOH at 37° C. for 15 min to digest the RNA, and then cDNA was recovered. Fluorescently labeled cDNA probe was purified using a QIA quick PCR purification kit (Qiagen). […] Data were analyzed according to Array Vision (Imaging Research). Total RNA was extracted from the base of leaf blades of rice (Nipponbare) seedling treated with 1 μM brassinolide, and the RNA was analyzed using cDNA microarrays containing 1265 rice genes. […]

Molecule | expression of OsBLE1 and OsBLE2 following hormone treatment [1] | growth of stem and leaf of transformed rice compared to controls containing the vector alone [2] | expression level of the 12 different genes [3] | time after treatment at which expression of OsBLE1 and OsBLE2 occurs / is induced ([1]; FIG. 2A)
C=C1C[C@]23C[C@@]1(O)CC[C@H]2[C@@]12C=C[C@H](O)[C@@](C)(C(=O)O1)[C@H]2[C@@H]3C(=O)O [GA3, gibberellin] | increased |  |  | 
O=C(O)Cc1c[nH]c2ccccc12 [IAA, indole-3-acetic acid] | increased |  |  | 
OsBLE2: OsBLE2 cDNA (SEQ ID NO: 3) inserted in antisense direction in binary vector pIG121-Hm under CaMV 35S promoter |  | suppressed growth of stem and leaf |  | 
CC(C)[C@H](C)[C@@H](O)[C@H](O)[C@@H](C)[C@H]1CC[C@H]2[C@@H]3COC(=O)[C@H]4C[C@H](O)[C@H](O)C[C@]4(C)[C@H]3CC[C@]12C [brassinolide] | increased |  | markedly increased | two to six; also recorded: one to six
B1 |  | suppressed growth of stem and leaf |  | 
